Counter-ions that a name gives are not always drawn.
biological target: T1, KMO mouse enzyme (Mus musculus, UniProt Q91WN4); experiment: KMO mouse enzyme assay: L-Kynurenine hydroxylation to 3-Hydroxy-Kynurenine monitored by LC/MS (MRM); assay type: biochemical; details: compound at 10 μM; KMO enzyme from mouse liver mitochondria
T1 construct: KMO enzyme prepared at Evotec from mouse liver (4-6 weeks old) via mitochondria isolation; from tissue; host or cells: mouse liver (4-6 weeks old), mitochondria isolation, prepared at Evotec
Description: A method of monitoring L-Kynurenine (KYN) hydroxylation to form 3-Hydroxy-Kynurenine (3OH-KYN) by LC/MS is described. Product is quantified by multiple reaction monitoring (MRM method).
• Compound: Stock concentrations: 10 mM in 100% DMSO • Enzyme: KMO enzyme prepared at Evotec from mouse liver (4-6 weeks old) via mitochondria isolation as described in the literature • Substrate: L-Kynurenine (Sigma: Cat# K3750, stock concentration: 10 mM in 100 mM potassium phosphate buffer, pH 7.4) Assay Conditions: […]

T1 sequence (Q91WN4 whole entry): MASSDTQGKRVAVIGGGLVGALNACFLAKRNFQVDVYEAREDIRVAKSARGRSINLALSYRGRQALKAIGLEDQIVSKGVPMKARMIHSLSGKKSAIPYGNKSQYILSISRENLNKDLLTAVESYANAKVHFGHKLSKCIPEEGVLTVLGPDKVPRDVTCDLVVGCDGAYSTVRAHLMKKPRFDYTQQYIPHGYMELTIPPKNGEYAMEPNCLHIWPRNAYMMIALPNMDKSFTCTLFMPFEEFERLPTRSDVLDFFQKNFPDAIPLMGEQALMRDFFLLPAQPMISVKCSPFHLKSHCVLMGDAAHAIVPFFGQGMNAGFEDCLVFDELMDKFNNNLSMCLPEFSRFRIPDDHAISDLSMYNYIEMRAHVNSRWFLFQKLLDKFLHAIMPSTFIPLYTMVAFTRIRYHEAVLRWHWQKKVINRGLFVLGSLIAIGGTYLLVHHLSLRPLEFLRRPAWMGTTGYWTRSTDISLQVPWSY

Point of comparison: `Cl.O=C(O)c1cc(-c2cc(Cl)cc(Cl)c2)ccn1` [4-(3,5-Dichloro-phenyl)-pyridine-2-carboxylic acid hydrocloride salt], “INH.Mouse @ 10 μM” value 76.6. Against it:
- Cc1ccc(NC(=O)c2cc(-c3ccc(Cl)c(Cl)c3)ncn2)cn1.Cl [6-(3,4-Dichloro-phenyl)-pyrimidine-4-carboxylic acid (6-methyl-pyridin-3-yl)-amide hydrochloride salt] — higher, 94.0

same assay, conditions: compound at 10 μM; KMO enzyme from mouse liver mitochondria; read-out: INH.Mouse @ 10 μM

Point of comparison: `O=C(Nc1cncnc1)c1cc(-c2cccc(Cl)c2)ccn1` [4-(3-Chloro-phenyl)-pyridine-2-carboxylic acid pyrimidin-5-ylamide], inhibition at 10 µM 60.8%. Against it:
- CC(=O)N1CCN(C(=O)c2cc(-c3cccc(Cl)c3)ncn2)CC1 [1-{4-[6-(3-Chloro-phenyl)-pyrimidine-4-carbonyl]-piperazin-1-yl}-ethanone] — higher, 94.9%
- O=C(O)c1ccnc(-c2cccc(Cl)c2)c1 [2-(3-Chloro-phenyl)-isonicotinic acid hydrochloride salt] — lower, 53.5%
- O=C(Nc1ccccc1)c1cc(-c2ccc(Cl)c(Cl)c2)ccn1 [4-(3,4-Dichloro-phenyl)-pyridine-2-carboxylic acid phenylamide] — lower, 43.5%
- COc1cncc(NC(=O)c2cc(-c3cc(Cl)cc(Cl)c3)ccn2)c1 [4-(3,5-Dichloro-phenyl)-pyridine-2-carboxylic acid (5-methoxy-pyridin-3-yl)-amide] — lower, 52.6%
- O=C(Nc1ccccc1)c1cc(-c2cc(Cl)cc(Cl)c2)ccn1 [4-(3,5-Dichloro-phenyl)-pyridine-2-carboxylic acid phenylamide] — lower, 59.7%
- COc1cncc(NC(=O)c2cc(-c3cccc(Cl)c3)ccn2)c1 [4-(3-Chloro-phenyl)-pyridine-2-carboxylic acid (5-methoxy-pyridin-3-yl)-amide] — lower, 53.8%
- COC(=O)c1cc(-c2cccc(Cl)c2)ccn1 [4-(3-Chloro-phenyl)-pyridine-2-carboxylic acid methyl ester] — higher, 100%
- Cc1ccc(NC(=O)c2cc(-c3cccc(Cl)c3)ccn2)cc1 [4-(3-Chloro-phenyl)-pyridine-2-carboxylic acid p-tolylamide] — higher, 85.6%
- O=C(Nc1ccccc1)c1cc(-c2cccc(Cl)c2)ccn1 [4-(3-Chloro-phenyl)-pyridine-2-carboxylic acid phenylamide] — higher, 68.4%
- O=C(Nc1cccnc1)c1cc(-c2cccc(Cl)c2)ccn1 [4-(3-Chloro-phenyl)-pyridine-2-carboxylic acid pyridin-3-ylamide] — lower, 52.3%
- O=C(O)c1cc(-c2cccc(Cl)c2)ccn1 [4-(3-Chloro-phenyl)-pyridine-2-carboxylic acid] — higher, 100%
- O=C1CN(C(=O)c2cc(-c3cccc(Cl)c3)ncn2)CCN1 [4-[6-(3-Chloro-phenyl)-pyrimidine-4-carbonyl]-piperazin-2-one] — higher, 100%
- COC(=O)c1cc(-c2ccc(F)cc2F)ncn1 [6-(2,4-Difluoro-phenyl)-pyrimidine-4-carboxylic acid methyl ester] — higher, 100%
- O=C(O)c1cc(-c2cc(C(F)(F)F)ccc2F)ncn1 [6-(2-Fluoro-5-trifluoromethyl-phenyl)-pyrimidine-4-carboxylic acid] — higher, 80.3%
- COC(=O)c1cc(-c2ccc(Cl)c(Cl)c2)nc(C)n1 [6-(3,4-Dichloro-phenyl)-2-methyl-pyrimidine-4-carboxylic acid methyl ester] — higher, 95.5%
- COC(=O)c1ncnc(-c2ccc(Cl)c(Cl)c2)c1F [6-(3,4-Dichloro-phenyl)-5-fluoro-pyrimidine-4-carboxylic acid methyl ester] — higher, 100%
- Cn1cc(NC(=O)c2cc(-c3ccc(Cl)c(Cl)c3)ncn2)cn1 [6-(3,4-Dichloro-phenyl)-pyrimidine-4-carboxylic acid (1-methyl-1H-pyrazol-4-yl)-amide] — higher, 100%
- Cc1ccc(NC(=O)c2cc(-c3ccc(Cl)c(Cl)c3)ncn2)c(C)n1 [6-(3,4-Dichloro-phenyl)-pyrimidine-4-carboxylic acid (2,6-dimethyl-pyridin-3-yl)-amide] — higher, 96.8%
- Cc1ncccc1NC(=O)c1cc(-c2ccc(Cl)c(Cl)c2)ncn1 [6-(3,4-Dichloro-phenyl)-pyrimidine-4-carboxylic acid (2-methyl-pyridin-3-yl)-amide] — higher, 84.2%
- Cc1ncc(NC(=O)c2cc(-c3ccc(Cl)c(Cl)c3)ncn2)cn1 [6-(3,4-Dichloro-phenyl)-pyrimidine-4-carboxylic acid (2-methyl-pyrimidin-5-yl)-amide] — higher, 85.6%
- Cc1cc(NC(=O)c2cc(-c3ccc(Cl)c(Cl)c3)ncn2)on1 [6-(3,4-Dichloro-phenyl)-pyrimidine-4-carboxylic acid (3-methyl-isoxazol-5-yl)-amide] — higher, 100%
- COc1cncc(NC(=O)c2cc(-c3ccc(Cl)c(Cl)c3)ncn2)c1 [6-(3,4-Dichloro-phenyl)-pyrimidine-4-carboxylic acid (5-methoxy-pyridin-3-yl)-amide] — higher, 100%
- Cc1nnc(NC(=O)c2cc(-c3ccc(Cl)c(Cl)c3)ncn2)o1 [6-(3,4-Dichloro-phenyl)-pyrimidine-4-carboxylic acid (5-methyl-[1,3,4]oxadiazol-2-yl)-amide] — higher, 100%
- Cc1ccc(NC(=O)c2cc(-c3ccc(Cl)c(Cl)c3)ncn2)cn1 [6-(3,4-Dichloro-phenyl)-pyrimidine-4-carboxylic acid (6-methyl-pyridin-3-yl)-amide] — higher, 100%
- O=C(NCc1ccncc1)c1cc(-c2ccc(Cl)c(Cl)c2)ncn1 [6-(3,4-Dichloro-phenyl)-pyrimidine-4-carboxylic acid (pyridin-4-ylmethyl)-amide] — higher, 95.5%
- O=C(Nc1nncs1)c1cc(-c2ccc(Cl)c(Cl)c2)ncn1 [6-(3,4-Dichloro-phenyl)-pyrimidine-4-carboxylic acid [1,3,4]thiadiazol-2-ylamide] — higher, 100%
- O=C(Nc1ccon1)c1cc(-c2ccc(Cl)c(Cl)c2)ncn1 [6-(3,4-Dichloro-phenyl)-pyrimidine-4-carboxylic acid isoxazol-3-ylamide] — higher, 100%
- COC(=O)c1cc(-c2ccc(Cl)c(Cl)c2)ncn1 [6-(3,4-Dichloro-phenyl)-pyrimidine-4-carboxylic acid methyl ester] — higher, 101%
- Cc1ccc(NC(=O)c2cc(-c3ccc(Cl)c(Cl)c3)ncn2)cc1 [6-(3,4-Dichloro-phenyl)-pyrimidine-4-carboxylic acid p-tolylamide] — higher, 100%
- O=C(Nc1ccccn1)c1cc(-c2ccc(Cl)c(Cl)c2)ncn1 [6-(3,4-Dichloro-phenyl)-pyrimidine-4-carboxylic acid pyridin-2-ylamide] — higher, 100%
- O=C(Nc1cccnc1)c1cc(-c2ccc(Cl)c(Cl)c2)ncn1 [6-(3,4-Dichloro-phenyl)-pyrimidine-4-carboxylic acid pyridin-3-ylamide] — higher, 83.5%
- O=C(Nc1ccncc1)c1cc(-c2ccc(Cl)c(Cl)c2)ncn1 [6-(3,4-Dichloro-phenyl)-pyrimidine-4-carboxylic acid pyridin-4-ylamide] — higher, 90.1%
- O=C(Nc1cncnc1)c1cc(-c2ccc(Cl)c(Cl)c2)ncn1 [6-(3,4-Dichloro-phenyl)-pyrimidine-4-carboxylic acid pyrimidin-5-ylamide] — higher, 95.5%
